Data published in PMC8032624, “Prediction of dose-dependent in vivo acetylcholinesterase inhibition by profenofos in rats and humans using physiologically based kinetic (PBK) modeling-facilitated reverse dosimetry” (Archives of Toxicology, 2021).
pIC50: −log10 of the molar value.

What was measured:
AChE = AChE (Homo sapiens, UniProt P22303); assay: In vitro inhibition of human recombinant AChE (Ellman); format: biochemical; set-up: purchased Sigma-Aldrich; settings: 15-min incubation at 37 °C
Description: (§1) To perform reverse dosimetry of in vitro AChE inhibition by profenofos, first the in vitro AChE activity in the absence or presence of increasing concentrations of profenofos was determined. For humans, commercially available recombinant AChE was used. For rats, no commercially available recombinant AChE was available, so rat AChE was obtained from rat blood as described below.
AChE inhibition was determined following the protocol of Ellman et al. ([1961]) as modified by Chambers and Chambers ([1989]). The concentration of acetylthiocholine and recombinant AChE were optimized to be linear for metabolite formation (data not shown). Human recombinant AChE was dissolved in 0.1 M sodium phosphate (pH 7.4) containing 1 mg/ml BSA (which was present to stabilize human recombinant AChE (Rosenfeld and Sultatos [2006])) to reach an enzyme concentration of 200 U/ml. Subsequently, the AChE enzyme solution was further diluted with 0.1 M sodium phosphate (pH 7.4) containing 1 mg/ml BSA to a working concentration of 1 U/ml. […] Subsequently, the time-dependent increase in absorbance due to formation of chromophore (DTNB + thiocholine) was measured at 37 °C using a wavelength of 412 nm during a period of 10 min, using a spectrophotometer (SpectraMax, Molecular Devices, UK).
AChE activity was expressed as enzyme activity (percent of control). […]

rat RBC AChE = biological target: T1, rat RBC AChE (Rattus norvegicus, UniProt P37136); assay: In vitro inhibition of rat erythrocyte (RBC) AChE; format: biochemical
T1 construct: contained 0.005 mg/ml erythrocyte ‘ghost’ membrane protein; tissue BioIVT; host or cells: rat blood; erythrocyte 'ghost' membranes (Sprague-Dawley rats)
Description: as §1
AChE activity was expressed as enzyme activity (percent of control). The concentration of profenofos that produced a 50% decrease in AChE activity (IC50) was determined from best‐fit plots of the mean (± SD) percentages of inhibition vs. the 10log logarithm of profenofos concentrations using GraphPad Prism 5, version 5.04 (San Diego, California, USA) equation: Y=100/(1+10^(X-LogIC50)).
Rat blood samples were processed according to a method reported by Larsen et al. ([2019]) with a few modifications to isolate the extrinsic membrane bound AChE. Briefly, the blood sample (2 ml) was centrifuged at 3000g for 15 min to separate plasma and cells. […] Aliquots of erythrocyte ‘ghost’ membrane preparations were used for protein measurement using the Pierce™ BCA Protein Assay Kit (Thermofisher) with BSA as standard for quantification (Lowry et al. [1951]), and for AChE activity assessment.
The effect of profenofos on rat AChE activity was assessed as described above for human recombinant AChE, with a few modifications. […]

[1] = test system: AChE of human erythrocytes; settings: freshly obtained human erythrocytes; ref Das and Jamil [2006]; read-out: IC50 AChE inhibition; cited from earlier work
brain AChE = settings: rats, single exposure; ref JMPR [2007]; cited from earlier work

T1 sequence (P37136 other isoform, or with tags, fused parts or gaps): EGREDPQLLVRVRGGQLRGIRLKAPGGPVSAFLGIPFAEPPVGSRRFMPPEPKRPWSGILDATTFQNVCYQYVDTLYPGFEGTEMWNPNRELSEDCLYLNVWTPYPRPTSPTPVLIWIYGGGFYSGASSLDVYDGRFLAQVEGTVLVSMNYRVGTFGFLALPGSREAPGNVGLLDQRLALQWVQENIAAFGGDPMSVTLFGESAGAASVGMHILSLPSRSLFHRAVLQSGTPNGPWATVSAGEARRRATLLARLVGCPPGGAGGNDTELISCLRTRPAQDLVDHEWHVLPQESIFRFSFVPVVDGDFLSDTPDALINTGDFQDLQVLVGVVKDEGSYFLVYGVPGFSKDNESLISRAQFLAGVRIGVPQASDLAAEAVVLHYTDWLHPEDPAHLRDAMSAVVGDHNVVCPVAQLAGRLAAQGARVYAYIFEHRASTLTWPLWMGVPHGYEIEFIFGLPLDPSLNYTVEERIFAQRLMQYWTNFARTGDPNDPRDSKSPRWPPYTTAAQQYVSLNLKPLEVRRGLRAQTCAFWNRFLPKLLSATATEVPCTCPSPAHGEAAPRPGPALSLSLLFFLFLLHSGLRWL
Sequence of AChE (P22303 32-614): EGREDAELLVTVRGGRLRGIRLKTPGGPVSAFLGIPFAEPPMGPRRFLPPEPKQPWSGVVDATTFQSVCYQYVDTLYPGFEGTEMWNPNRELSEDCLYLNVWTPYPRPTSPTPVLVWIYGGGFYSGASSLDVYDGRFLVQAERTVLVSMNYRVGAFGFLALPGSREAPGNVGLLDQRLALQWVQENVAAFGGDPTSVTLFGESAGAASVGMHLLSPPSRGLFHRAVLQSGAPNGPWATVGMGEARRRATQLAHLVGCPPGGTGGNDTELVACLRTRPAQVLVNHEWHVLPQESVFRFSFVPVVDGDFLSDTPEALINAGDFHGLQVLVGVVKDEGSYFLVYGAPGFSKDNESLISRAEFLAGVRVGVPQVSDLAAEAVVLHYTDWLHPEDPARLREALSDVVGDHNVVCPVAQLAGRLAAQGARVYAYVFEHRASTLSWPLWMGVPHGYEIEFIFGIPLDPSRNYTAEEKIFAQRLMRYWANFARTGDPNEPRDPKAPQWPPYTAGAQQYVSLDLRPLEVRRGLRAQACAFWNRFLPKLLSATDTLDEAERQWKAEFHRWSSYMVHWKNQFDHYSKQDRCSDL

**Q.** With `CCCSP(=O)(OCC)Oc1ccc(Br)cc1Cl` (stereo not shown) [profenofos, O-(4-bromo-2-chlorophenyl) O-ethyl S-propyl phosphorothioate] as the compound, how does the pIC50 (AChE) read?
**A.** 6.52

**Q.** What about the pIC50 (rat RBC AChE) of the same compound?
**A.** 6.51

**Q.** And the pIC50 [1]?
**A.** 6.46

**Q.** What about the “NOAEL for inhibition of brain AChE” value (brain AChE) of the same compound?
**A.** 100 mg/kg bw
